Here are results for 34 compounds from patent publication US11426397B2, “Piperidinyl- and piperazinyl-substituted heteroaromatic carboxamides as modulators of GPR6” (TAKEDA PHARMACEUTICAL COMPANY LIMITED, priority 2017, dated 2022).

T1 sequence (P46095 whole entry): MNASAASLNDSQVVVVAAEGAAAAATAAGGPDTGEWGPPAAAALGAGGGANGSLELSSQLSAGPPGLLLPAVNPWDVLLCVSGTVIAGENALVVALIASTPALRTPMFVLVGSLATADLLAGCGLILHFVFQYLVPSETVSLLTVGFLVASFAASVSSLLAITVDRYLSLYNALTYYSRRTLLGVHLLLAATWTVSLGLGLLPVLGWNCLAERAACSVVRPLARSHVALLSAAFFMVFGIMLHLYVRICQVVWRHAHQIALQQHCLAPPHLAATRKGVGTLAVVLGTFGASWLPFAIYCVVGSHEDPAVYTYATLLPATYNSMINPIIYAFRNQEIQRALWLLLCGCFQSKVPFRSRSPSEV

This assay addresses T1, GPR6 receptor expressed in CHO-K1 cells (Homo sapiens, UniProt P46095).
T1 construct: expressed in transfected cells
Put plainly: In vitro inhibition of cAMP (EC50), cell-based HTRF cAMP assay. Particulars: inhibition of constitutive cAMP activity of GPR6 in CHO-K1 cells. In short, it runs like this:
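Tetracycline-inducible CHO-K1 line, GPR6 expression induced 20 h with 2 μg/mL doxycycline. Compounds incubated 45 min at 37 °C in Ringer's buffer (pH 7.4) with 0.5% fatty acid free BSA and 300 μM IBMX. Constitutive cAMP read by Lance HTRF; EC50 from four-parameter logistic fit.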
In the case of `COc1ccccc1CN1CCN(c2ccc(C#N)cc2NC(=O)c2cccnc2OC)CC1` [Example 247, N-(5-cyano-2-(4-(2-methoxybenzyl)piperazin-1-yl)phenyl)-2-methoxynicotinamide], the “pEC50, in vitro inhibition of cAMP” value is 5.9.
The figure for `Cn1ccnc1C(=O)Nc1cc(C#N)ccc1N1CCC(Oc2ccc(F)cc2F)CC1` [Example 50, N-(5-cyano-2-(4-(2,4-difluorophenoxy)piperidin-1-yl)phenyl)-1-methyl-1H-imidazole-2-carboxamide] is 6.2.
For `CC(C)n1cc(Br)cc(C(=O)Nc2cc(C#N)ccc2N2CCC(Oc3ccc(F)cc3F)CC2)c1=O` [Example 182, 5-bromo-N-(5-cyano-2-(4-(2,4-difluorophenoxy)piperidin-1-yl)phenyl)-1-isopropyl-2-oxo-1,2-dihydropyridine-3-carboxamide] the value was 6.3; for `COc1ncc(F)cc1C(=O)Nc1ccc(C)nc1N1CCN(Cc2ccc(F)cc2)CC1` [Example 100, 5-fluoro-N-(2-(4-(4-fluorobenzyl)piperazin-1-yl)-6-methylpyridin-3-yl)-2-methoxynicotinamide], 6.8.
For `COc1ncccc1C(=O)Nc1cnc(C(N)=O)cc1N1CCC(Oc2ccc(F)cc2F)CC1` [Example 269, 4-(4-(2,4-difluorophenoxy)piperidin-1-yl)-5-(2-methoxynicotinamido)picolinamide] the value was 6.9; for `COc1ccc(N2CCOCC2)cc1C(=O)Nc1cc(C#N)ccc1N1CCC(Oc2ccc(F)cc2F)CC1` [Example 215, N-(5-cyano-2-(4-(2,4-difluorophenoxy)piperidin-1-yl)phenyl)-2-methoxy-5-morpholinobenzamide], 5.5; for `Cn1cccc(C(=O)Nc2cc(C#N)cnc2N2CCC(Oc3ccc(F)cc3F)CC2)c1=O` [Example 58, N-(5-cyano-2-(4-(2,4-difluorophenoxy)piperidin-1-yl)pyridin-3-yl)-1-methyl-2-oxo-1,2-dihydropyridine-3-carboxamide], 7.4.
In the case of `COc1ncccc1C(=O)Nc1cc(C#N)ccc1N1CCN(Cc2ccsc2)CC1` [Example 73, N-(5-cyano-2-(4-(thiophen-3-ylmethyl)piperazin-1-yl)phenyl)-2-methoxynicotinamide], the “pEC50, in vitro inhibition of cAMP” value was determined as 6.5.
The figure for `COc1cc(Cl)ccc1C(=O)Nc1cc(C#N)ccc1N1CCC(Oc2ccc(F)cc2F)CC1` [Example 228, 4-chloro-N-(5-cyano-2-(4-(2,4-difluorophenoxy)piperidin-1-yl)phenyl)-2-methoxybenzamide] is 7.2; for `N#Cc1ccc(N2CCC(Oc3ccc(F)cc3F)CC2)c(NC(=O)c2ccccc2O)c1` [Example 275, N-(5-cyano-2-(4-(2,4-difluorophenoxy)piperidin-1-yl)phenyl)-2-hydroxybenzamide] it is 6.5; for `Cn1cccc(C(=O)Nc2cc(S(C)(=O)=O)ccc2N2CCC(Oc3ccc(F)cc3F)CC2)c1=O` [Example 3, N-(2-(4-(2,4-difluorophenoxy)piperidin-1-yl)-5-(methylsulfonyl)phenyl)-1-methyl-2-oxo-1,2-dihydropyridine-3-carboxamide] it is 7.5.
For `CCOc1c(C(=O)Nc2cc(C#N)cnc2N2CCC(Oc3ccc(F)cc3F)CC2)cnn1C` [Example 121, N-(5-cyano-2-(4-(2,4-difluorophenoxy)piperidin-1-yl)pyridin-3-yl)-5-ethoxy-1-methyl-1H-pyrazole-4-carboxamide] the value was 6.7; for `COc1nn(C)cc1C(=O)Nc1cc(C#N)cnc1N1CCC(Oc2ccc(F)cc2F)CC1` [Example 60, N-(5-cyano-2-(4-(2,4-difluorophenoxy)piperidin-1-yl)pyridin-3-yl)-3-methoxy-1-methyl-1H-pyrazole-4-carboxamide], 7.3.
For `COc1ncccc1C(=O)Nc1cc(C#N)ccc1N1CCN(Cc2ccccc2F)CC1` [Example 239, N-(5-cyano-2-(4-(2-fluorobenzyl)piperazin-1-yl)phenyl)-2-methoxynicotinamide] the value was 6.9.
Consider `Cc1ccc(F)c(C(=O)Nc2cc(C#N)cnc2N2CCC(Oc3ccc(F)cc3F)CC2)n1` [Example 57, N-(5-cyano-2-(4-(2,4-difluorophenoxy)piperidin-1-yl)pyridin-3-yl)-3-fluoro-6-methylpicolinamide], for which the “pEC50, in vitro inhibition of cAMP” value is 7.3.
For `COc1cccc(F)c1C(=O)Nc1cc(S(C)(=O)=O)ccc1N1CCC(Oc2ccc(F)cc2F)CC1` [Example 11] the value was 6.7; for `COc1nn(C)cc1C(=O)Nc1cc(C#N)ccc1N1CCC(S(=O)(=O)c2cccc(F)c2)CC1` [Example 97, N-(5-cyano-2-(4-((3-fluorphenyl)sulfonyl)piperidin-1-yl)phenyl)-3-methoxy-1-methyl-1H-pyrazole-4-carboxamide], 6.4; for `COc1nc(C)ncc1C(=O)Nc1cc(C#N)ccc1N1CCC(Oc2ccc(F)cc2F)CC1` [Example 278], 7.4.
The figure for `COc1ncccc1C(=O)Nc1cc(C#N)cnc1N1CCC(Oc2ccc(F)cc2F)CC1` [Example 63, N-(5-cyano-2-(4-(2,4-difluorophenoxy)piperidin-1-yl)pyridin-3-yl)-2-methoxynicotinamide] is 7.1.
For `COc1c(C(=O)Nc2cc(C#N)ccc2N2CCC(Oc3ccc(F)cc3F)CC2)nnn1Cc1ccccc1` [Example 220, 1-benzyl-N-(5-cyano-2-(4-(2,4-difluorophenoxy)piperidin-1-yl)phenyl)-5-methoxy-1H-1,2,3-triazole-4-carboxamide] the value was 5.8; for `COc1cnc(C(=O)Nc2cnc(C)cc2N2CCC(Oc3ccc(F)cc3F)CC2)cn1` [Example 142, N-(4-(4-(2,4-difluorophenoxy)piperidin-1-yl)-6-methylpyridin-3-yl)-5-methoxypyrazine-2-carboxamide], 6.2.
`N#Cc1ccc(N2CCC(Oc3ccc(F)cc3F)CC2)c(NC(=O)c2cccn(C3CCCCC3)c2=O)c1` [Example 180, N-(5-cyano-2-(4-(2,4-difluorophenoxy)piperidin-1-yl)phenyl)-1-cyclohexyl-2-oxo-1,2-dihydropyridine-3-carboxamide]: the “pEC50, in vitro inhibition of cAMP” value turned out to be 5.8.
For `Cn1cccc(C(=O)Nc2ccc(S(C)(=O)=O)cc2N2CCC(Oc3ccc(F)cc3F)CC2)c1=O` [Example 30, N-(2-(4-(2,4-difluorophenoxy)piperidin-1-yl)-4-(methylsulfonyl)phenyl)-1-methyl-2-oxo-1,2-dihydropyridine-3-carboxamide], the “pEC50, in vitro inhibition of cAMP” value is 7.2.
The figure for `COc1ncccc1C(=O)Nc1cnccc1N1CCC(Oc2ccc(F)cc2F)CC1` [Example 264] is 6.8; for `N#Cc1ccc(N2CCC(Oc3ccc(F)cc3F)CC2)c(NC(=O)c2csnn2)c1` [Example 116, N-(5-cyano-2-(4-(2,4-difluorophenoxy)piperidin-1-yl)phenyl)-1,2,3-thiadiazole-4-carboxamide] it is 5.9; for `COc1ncccc1C(=O)Nc1cc(C#N)cnc1N1CCN(Cc2ccc(F)cc2)CC1` [Example 75, N-(5-cyano-2-(4-(4-fluorobenzyl)piperazin-1-yl)pyridin-3-yl)-2-methoxynicotinamide] it is 7.3.
For `N#Cc1ccc(N2CCC(Oc3ccc(F)cc3F)CC2)c(NC(=O)c2ncccc2F)c1` [Example 108, N-(5-cyano-2-(4-(2,4-difluorophenoxy)piperidin-1-yl)phenyl)-3-fluoropicolinamide] the value was 7.0; for `Cc1ccc(C(=O)Nc2cc(C#N)ccc2N2CCC(Oc3ccc(F)cc3F)CC2)nn1` [Example 146, N-(5-cyano-2-(4-(2,4-difluorophenoxy)piperidin-1-yl)phenyl)-6-methylpyridazine-3-carboxamide], 6.6.
For `Cn1cccc(C(=O)Nc2cc(C#N)ccc2N2CCC(Oc3c(F)cccc3F)CC2)c1=O` [Example 13, N-(5-cyano-2-(4-(2,6-difluorophenoxy)piperidin-1-yl)phenyl)-1-methyl-2-oxo-1,2-dihydropyridine-3-carboxamide] the value was 6.3.
For `COc1ncccc1C(=O)Nc1cc(C#N)ccc1N1CCN(Cc2cccs2)CC1` [Example 72, N-(5-cyano-2-(4-(thiophen-2-ylmethyl)piperazin-1-yl)phenyl)-2-methoxynicotinamide], the “pEC50, in vitro inhibition of cAMP” value was 6.6.
`COc1ccc(CN2CCN(c3ncc(C#N)cc3NC(=O)c3cn(C)nc3OC)CC2)cc1F` [Example 168, N-(5-cyano-2-(4-(3-fluoro-4-methoxybenzyl)piperazin-1-yl)pyridin-3-yl)-3-methoxy-1-methyl-1H-pyrazole-4-carboxamide]: the “pEC50, in vitro inhibition of cAMP” value turned out to be 6.4.
The figure for `COc1ccc(CN2CCN(c3ncc(C#N)cc3NC(=O)c3cn(C)nc3OC)CC2)c(F)c1` [Example 152, N-(5-cyano-2-(4-(2-fluoro-4-methoxybenzyl)piperazin-1-yl)pyridin-3-yl)-3-methoxy-1-methyl-1H-pyrazole-4-carboxamide] is 7.1.
For `COc1nc(Cl)ccc1C(=O)Nc1cc(C#N)ccc1N1CCC(Oc2ccc(F)cc2F)CC1` [Example 191, 6-chloro-N-(5-cyano-2-(4-(2,4-difluorophenoxy)piperidin-1-yl)phenyl)-2-methoxynicotinamide] the value was 6.8.
For `Cc1cccnc1C(=O)Nc1cc(C#N)cnc1N1CCC(Oc2ccc(F)cc2F)CC1` [Example 59, N-(5-cyano-2-(4-(2,4-difluorophenoxy)piperidin-1-yl)pyridin-3-yl)-3-methylpicolinamide] the value was 7.3.
